Each structure is given as a SMILES string.

The assay has as its target T1, recombinant human full-length HSD17B13 protein (Homo sapiens, UniProt Q7Z5P4).
T1 construct: recombinant human full-length HSD17B13 protein; 6xHis (C); made in house; host or cells: HEK293E-253/FH
T1 sequence (Q7Z5P4 20-300): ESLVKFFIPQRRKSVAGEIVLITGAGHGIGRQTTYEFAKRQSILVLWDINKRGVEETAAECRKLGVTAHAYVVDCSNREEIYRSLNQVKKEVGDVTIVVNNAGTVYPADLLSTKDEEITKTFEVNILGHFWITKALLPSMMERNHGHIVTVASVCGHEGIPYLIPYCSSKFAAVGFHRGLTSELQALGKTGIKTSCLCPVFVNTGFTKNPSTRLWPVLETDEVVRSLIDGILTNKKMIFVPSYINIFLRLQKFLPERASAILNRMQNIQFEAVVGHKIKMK
Put plainly: HSD17B13 96 luminescence inhibition assay (NAD(P)H-Glo). The class given is biochemical. How it is done:
Compounds of the present disclosure were tested for inhibition of HSD17B13 using the following protocol. Briefly, recombinant human full-length HSD17B13 protein with a 6X-C-terminal His tag was expressed in cell line HEK293E-253/FH and purified using Ni^2+-affinity purification. Enzymatic activity was determined through the production of NADH using the NAD(P)H-Glo Detection System (Promega). The inhibitory activity of test compounds was determined in reactions performed at 30° C. in assay buffer consisting of 25 mM EPPS (8.0), 125 mM NaCl, 0.03% Triton X-100, 0.03% BSA, with […] steroid substrate (1,3,5(10), 7-estratetraen-3, 17b-diol (Steraloids E0580)) added from a 2.5 mM DMSO stock and 500 mM NAD. The final percentage of DMSO was 4.5%. After a one-hour incubation, a 20% volume of luciferase Glo-reagent was added and light units captured on a Victor V Plate Reader (Perkin Elmer).
Concentration-response curves for inhibitors were normalized to control samples containing enzyme only (negative control) and sample without enzyme (positive control). 50% inhibition (IC50) values were determined using a nonlinear least squares fit of the data to a four-parameter equation using Prism 6.0 (GraphPad Software, San Diego).
With `O=C1S/C(=C\c2ccc(F)c(O)c2F)C(=O)N1Cc1cccc(O)c1` [Compound 6, (Z)-5(2,4-difluoro-3-hydroxybenzylidene)-3-(3-hydroxybenzyl)thiazolidine-2,4-dione], the half-maximal inhibitory concentration (IC50) (commonly the point on the concentration scale where inhibition reaches its midpoint) is 1 to 5 µM.
Regarding `COc1ccc(CN2C(=O)S/C(=C\c3c(F)cc(F)c(O)c3F)C2=O)cn1` [Compound 23, (Z)-3-((6-methoxypyridin-3-yl)methyl)-5-(2,4,6-trifluoro-3-hydroxybenzylidene)thiazolidine-2,4-dione], the IC50 was 1 to 5 µM.
For the molecule `O=C(c1ccc(-c2ccc(F)c(O)c2F)s1)c1cc(F)c(F)c(O)c1F` [Compound 31, (5-(2,4-difluoro-3-hydroxyphenyl)thiophen-2-yl)(2,4,5-trifluoro-3-hydroxyphenyl) methanone], the half-maximal inhibitory concentration (IC50) fell in the range of 1 to 5 µM.
Turning to `O=C(NCc1cccc(O)c1)c1ccc2cc(F)c(O)cc2n1` [Compound 24, 6-fluoro-7-hydroxy-N-(3-hydroxybenzyl)quinoline-2-carboxamide], the IC50 lay in the range of 1 to 5 µM.
Regarding `O=C(NCc1cccc(O)c1)c1cc2cc(O)c(F)cc2cn1` [Compound 26, 7-fluoro-6-hydroxy-N-(3-hydroxybenzyl)isoquinoline-3-carboxamide], the IC50 is over 5 µM.
To `O=C1S/C(=C\c2ccc(F)c(O)c2)C(=O)N1Cc1cc(O)ccc1F` [Compound 8, (Z)-5-(4-fluoro-3-hydroxybenzylidene)-3-(2-fluoro-5-hydroxybenzyl)thiazolidine-2,4-dione] belongs 1 to 5 µM; to `CS(=O)(=O)N1CCC(CN2C(=O)S/C(=C\c3c(F)cc(F)c(O)c3F)C2=O)C1` (stereo not drawn) [Compound 1, (Z)-3-((1-(methylsulfonyl)pyrrolidin-3-yl)methyl)-5-(2,4,6-trifluoro-3-hydroxybenzylidene)thiazolidine-2,4-dione], over 5 µM; to `O=C(c1cc(O)c(F)c(F)c1)c1ccc(-c2ccc(F)c(O)c2F)s1` [Compound 30, (5-(2,4-difluoro-3-hydroxyphenyl)thiophen-2-yl)(3,4-difluoro-5-hydroxyphenyl) methanone], 1 to 5 µM.
To `N#Cc1cccc(CNC(=O)c2ccc3cc(F)c(O)cc3n2)c1` [Compound 27, N-(3-cyanobenzyl)-6-fluoro-7-hydroxyquinoline-2-carboxamide] belongs over 5 µM; to `O=C(c1ccc(-c2ccc(F)c(O)c2F)s1)c1ccc(F)c(O)c1F` [Compound 32, (2,4-difluoro-3-hydroxyphenyl)(5-(2,4-difluoro-3-hydroxyphenyl)thiophen-2-yl)methanone], 1 to 5 µM; to `O=C1O/C(=C\c2ccc(F)c(O)c2)C(=O)N1Cc1cccc(O)c1` [Compound 10, (Z)-5-(4-fluoro-3-hydroxybenzylidene)-3-(3-hydroxybenzyl)oxazolidine-2,4-dione], over 5 µM.
To `O=C1S/C(=C\c2c(F)cc(F)c(O)c2F)C(=O)N1Cc1cc[nH]c(=O)c1` [Compound 36, (Z)-3-((2-oxo-1,2-dihydropyridin-4-yl)methyl)-5-(2,4,6-trifluoro-3-hydroxybenzylidene)thiazolidine-2,4-dione] belongs 1 to 5 µM; to `O=C1S/C(=C\c2c(F)ccc(O)c2F)C(=O)N1Cc1cccc(O)c1` [Compound 37, (Z)-5-(2,6-difluoro-3-hydroxybenzylidene)-3-(3-hydroxybenzyl)thiazolidine-2,4-dione], over 5 µM; to `O=C1S/C(=C\c2ccc(F)c(O)c2)C(=O)N1Cc1ccc(F)c(F)c1` [Compound 2, (Z)-3-(3,4-difluorobenzyl)-5-(4-fluoro-3-hydroxybenzylidene)thiazolidine-2,4-dione], 1 to 5 µM.
Turning to `CS(=O)(=O)c1cccc(CN2C(=O)S/C(=C\c3ccc(F)c(O)c3)C2=O)c1` [Compound 12, (Z)-5-(4-fluoro-3-hydroxybenzylidene)-3-(3-(methylsulfonyl)benzyl)thiazolidine-2,4-dione], the half-inhibitory concentration (IC50) was 1 to 5 µM.
